In paper PMC9030691, “Toxicokinetics of β-Amanitin in Mice and In Vitro Drug–Drug Interaction Potential” (Pharmaceutics, 2022):
Where two headings read alike, the source gives them in different places.

Tests used:
humans = settings: oral administration; cited from earlier work
Protocol: Amanita phalloides poisoning can cause acute hepatitis, leading to the rapid development of liver insufficiency and ultimately coma and death. Nephrotoxicity is reported less frequently. Yilmaz et al. reported that an oral intake of approximately 50 g of fresh Amanita phalloides, representing a dose of 0.32 mg/kg of amatoxins, can be lethal. A few reports are available that describe the toxicokinetics of α- and β-amanitin after the oral administration of toadstool extract to beagle dogs and rats. In addition, the toxicokinetics of α-amanitin were investi ... || The Amanitaceae family is responsible for nearly 95% of all fatal mushroom poisonings, and amatoxins are the primary threats to human life. The content of amatoxins varies by Amanita species, but α- and β-amanitin are the most abundant substances. […] Among amatoxins, α-amanitin i ...

CYP2A6 = molecular target: T1, CYP2A6 (Homo sapiens, UniProt P11509); assay: CYP2A6 inhibition in human liver microsomes; type: in vitro ADME; settings: ultrapooled human liver microsomes 0.2 mg/mL, 2.5 μM coumarin, β-amanitin 0.1–100 μM, pH 7.4, 37 °C, 15 min, LC-MS/MS, n = 3, read-out: IC50, CYP2A6 coumarin 7-hydroxylase
T1 construct: from tissue; host or cells: ultrapooled human liver microsomes
Protocol: (§1) β-amanitin inhibition (IC50 values) of CYP1A2, CYP2A6, CYP2B6, CYP2C8, CYP2C9, CYP2C19, CYP2D6, and CYP3A4 enzyme activities in HLMs were evaluated using LC-MS/MS and CYP substrates as previously described. Each incubation mixture was made up to a volume of 100 μL including HLMs (0.2 mg/mL), 50 mM potassium phosphate buffer (pH 7.4), 1.0 mM NADPH, 10 mM magnesium chloride, various concentrations of β-amanitin (0.1–100 μM), a cocktail of seven CYP probe substrates (50 μM phenacetin for CYP1A2, 2.5 μM coumarin for CYP2A6, 2 μM amodiaquine for CYP2C8, 10 μM diclofenac for CYP2C9, 100 μM [S]-mephenytoin for CYP2C19, 5 μM bufuralol for CYP2D6, and 2.5 μM midazolam for CYP3A4 in acetonitrile), or 50 μM bupropion for CYP2B6. The reactions were initiated with NADPH followed by incubation in a shaking water bath at 37 °C for 15 min with or without 30 min preincubation with NADPH. Reactions were stopped with 50 μL of ice-cold methanol containing ^13C2, ^15N-acetaminophen and d9-1′-hydroxybufuralol (ISs). Incubation mixtures were centrifuged at 13,000× g for 8 min at 4 °C. An aliquot (5 μL) of the supernatant from the reaction mixture was analyzed by the previous LC-MS/MS method.

MATE2-K = MATE2-K (Homo sapiens, UniProt Q86VL8); assay: MATE2-K transport inhibition in HEK293-MATE2-K cells; type: in vitro ADME; parameters: host or cells: HEK293 (TransportoCells); settings: 0.1 μM probe substrate, HBSS pH 7.4, β-amanitin 0.01–250 μM (methods), n = 3, read-out: IC50, MATE2-K-mediated [14C]metformin uptake
Protocol: β-amanitin inhibition (IC50 values) of OCT1, OCT2, MATE2-K, OAT1, OAT3, Na^+/taurocholate co-transporting polypeptide (NTCP), OATP1B1, OATP1B3, P-glycoprotein (P-gp), and breast-cancer-resistant protein (BCRP) transport activities were assessed in HEK293 cells overexpressing individual transporters (TransportoCells™, Corning), LLC-PK1-P-gp (Corning), or LLC-PK1-BCRP (obtained from Dr. A.H. Schinkel, Netherlands Cancer Institute; Amsterdam, The Netherlands), as previously reported. Each incubation mixture was prepared to a final volume of 100 μL HBSS (pH 7.4) containing 0.1 μM probe substrates ([^3H]methyl-4-phenylpyridinium for OCT1 and OCT2, [^14C]metformin for MATE2-K, [^3H]p-aminohippuric acid for OAT1, [^3H]estrone-3-sulfate for OAT3, OATP1B1 and BCRP, [^3H]taurocholate for NTCP, [^3H]17-β-D-estradiol-glucuronide for OATP1B3, [^3H]digoxin for P-gp) and various concentrations of β-amanitin (0.01–250 μM), as previously described.

CYP2B6 = molecular target: T2, CYP2B6 (Homo sapiens, UniProt P20813); assay: CYP2B6 inhibition in human liver microsomes; type: in vitro ADME; settings: ultrapooled human liver microsomes 0.2 mg/mL, 50 μM bupropion, β-amanitin 0.1–100 μM, pH 7.4, 37 °C, 15 min, LC-MS/MS, n = 3, read-out: IC50, CYP2B6 bupropion hydroxylase
T2 construct: from tissue; host or cells: ultrapooled human liver microsomes
T2 sequence (P20813 1-491): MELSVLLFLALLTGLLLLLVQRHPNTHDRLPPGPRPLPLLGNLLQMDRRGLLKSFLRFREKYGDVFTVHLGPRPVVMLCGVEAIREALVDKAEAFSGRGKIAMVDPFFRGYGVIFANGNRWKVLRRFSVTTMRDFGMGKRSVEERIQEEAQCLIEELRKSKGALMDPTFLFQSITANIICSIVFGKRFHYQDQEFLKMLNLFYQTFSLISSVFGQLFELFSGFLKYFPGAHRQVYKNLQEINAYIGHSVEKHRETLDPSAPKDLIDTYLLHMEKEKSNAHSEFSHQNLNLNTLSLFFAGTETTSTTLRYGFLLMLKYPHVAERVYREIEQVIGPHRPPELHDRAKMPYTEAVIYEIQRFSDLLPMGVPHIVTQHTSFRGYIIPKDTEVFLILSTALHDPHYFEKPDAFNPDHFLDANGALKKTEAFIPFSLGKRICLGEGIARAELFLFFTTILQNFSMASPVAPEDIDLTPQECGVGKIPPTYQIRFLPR
Protocol: as §1

[1] = with 30 min NADPH preincubation

T1 sequence (P11509 whole entry): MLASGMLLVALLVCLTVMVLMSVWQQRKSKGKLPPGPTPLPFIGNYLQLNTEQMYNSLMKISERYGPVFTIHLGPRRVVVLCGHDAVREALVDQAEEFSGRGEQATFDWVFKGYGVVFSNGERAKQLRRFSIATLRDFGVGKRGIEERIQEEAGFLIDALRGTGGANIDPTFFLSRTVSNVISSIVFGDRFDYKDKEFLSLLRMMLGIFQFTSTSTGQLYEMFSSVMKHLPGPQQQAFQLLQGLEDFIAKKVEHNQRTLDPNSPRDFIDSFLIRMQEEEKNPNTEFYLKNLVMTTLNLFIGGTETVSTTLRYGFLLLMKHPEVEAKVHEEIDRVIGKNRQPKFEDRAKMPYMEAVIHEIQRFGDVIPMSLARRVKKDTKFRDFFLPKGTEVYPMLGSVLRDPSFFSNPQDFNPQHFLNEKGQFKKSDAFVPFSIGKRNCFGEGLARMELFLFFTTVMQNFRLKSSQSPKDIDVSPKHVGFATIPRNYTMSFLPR
Sequence of MATE2-K (Q86VL8 1-566 isoform Q86VL8-3): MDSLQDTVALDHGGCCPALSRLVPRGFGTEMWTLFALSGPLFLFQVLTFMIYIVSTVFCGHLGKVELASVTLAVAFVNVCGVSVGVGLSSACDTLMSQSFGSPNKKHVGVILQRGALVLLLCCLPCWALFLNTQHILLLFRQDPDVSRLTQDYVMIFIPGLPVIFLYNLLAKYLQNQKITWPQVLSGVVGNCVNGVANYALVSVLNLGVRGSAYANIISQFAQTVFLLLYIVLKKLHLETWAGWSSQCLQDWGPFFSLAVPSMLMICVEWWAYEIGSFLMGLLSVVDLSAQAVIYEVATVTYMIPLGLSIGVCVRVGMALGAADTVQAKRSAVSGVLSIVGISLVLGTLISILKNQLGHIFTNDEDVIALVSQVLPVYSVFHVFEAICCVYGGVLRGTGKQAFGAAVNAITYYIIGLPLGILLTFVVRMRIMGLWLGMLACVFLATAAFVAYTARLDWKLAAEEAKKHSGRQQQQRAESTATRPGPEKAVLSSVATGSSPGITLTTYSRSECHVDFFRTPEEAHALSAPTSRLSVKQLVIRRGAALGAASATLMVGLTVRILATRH

Compound	Lethal dose (humans)	IC50 (CYP2A6; [1])	IC50 (CYP2A6; without NADPH preincubation)	IC50 (MATE2-K)	IC50 (CYP2B6; [1])	IC50 (CYP2B6; without NADPH preincubation)
α-amanitin [reference compound]	0.1 mg/kg	–	–	–	–	–
CC[C@H](C)[C@@H]1NC(=O)CNC(=O)[C@@H]2Cc3c([nH]c4cc(O)ccc34)[S@+]([O-])C[C@H](NC(=O)CNC1=O)C(=O)N[C@@H](CC(=O)O)C(=O)N1C[C@H](O)C[C@H]1C(=O)N[C@@H]([C@@H](C)[C@@H](O)CO)C(=O)N2 [β-amanitin]	–	80.1 µM	93.9 µM	2.1 µM	34.8 µM	38 µM
